Literature values, collected in patent US12037433B2, “(Co)polymers of hydrophobic monomers and methods of making and use thereof” (BASF SE, priority 2018, dated 2024).

Key:
[1] = for solubility in water, measured at 20° C.: additional hydrophobic monomers

Compound | Partitioning Coefficient n-octanol/water [log Kow at 25° C.] | Water Solubility at 20° C. [1] [µg/mL] | solubility in water, measured at 20° C. [1] [g/100 g water]
C=COC(=O)C(C)(C)C [vinyl neo-pentanoate] | – | – | 0.08
C=CC=C [butadiene] | – | – | 0.08
C=CC(=O)OCCCCCCCCCCCCCCCCC [Heptadecyl acrylate (C17 A), Heptadecyl acrylate] | 9.2 | 40 | –
C=C(C)C(=O)OCCCCCCCCCCCCCCCCCC [Stearyl Methacrylate (SMA), Stearyl Methacrylate] | 9.62 | – | –
C=C(C)C(=O)OCCCCCCCCCCCC [Lauryl Methacrylate (LMA), Lauryl Methacrylate] | 6.45 | 30 | –

The remaining lines, values ahead:

Partitioning Coefficient n-octanol/water [log Kow at 25° C.] | Water Solubility at 20° C. [1] [µg/mL] | solubility in water, measured at 20° C. [1] [g/100 g water] | Compound
3.54 | 100 | – | C=C(C)C(=O)OC1CCCCC1 [Cyclohexyl methacrylate (CHMA), Cyclohexyl methacrylate]
6.5 | 50 | – | C=C(C)C(=O)OCCCCCCCCCCCCCCCCC [Heptadecyl methacrylate (C17 MA), Heptadecyl methacrylate]
– | – | 0.03 | C=Cc1ccccc1 [styrene]
6.13 | 40 | – | C=CC(=O)OCCCCCCCCCCCC [Lauryl Acrylate (LA), Lauryl Acrylate]
9.28 | – | – | C=CC(=O)OCCCCCCCCCCCCCCCCCC [Stearyl Acrylate (SA), Stearyl Acrylate]
